Patent US20250109107A1, “AROMATIC RING-FUSED HETEROCYCLIC RING COMPOUND AS POTASSIUM CHANNEL REGULATOR, AND PREPARATION THEREFOR AND USE THEREOF” (Shanghai Zhimeng Biopharma, Inc., priority 2022, published 2025)
pEC50: −log10 of the molar value.

Target: T1, KCNQ2 potassium channels (CHO-KCNQ2 cells) (Homo sapiens, UniProt O43526)
T1 construct: expressed in transfected cells; host or cells: CHO cells stably expressing KCNQ2 (G418 selection in the culture medium)
Test: Potassium ion channel opener activity test (FDSS/μCELL detection, FluxOR thallium flux)
Assay type: cell-based
Conditions: for pEC50: 8 concentrations 0.045-100 μM, 3 replicate wells; for Maximum agonist rate (%): highest test concentration 100 μM, ratio of 180 s
Procedure: Example A1 Potassium Ion Channel Opener Activity Test (FDSS/p CELL Detection)
Cell preparation: CHO-KCNQ2 cells were cultured in a 175 cm^2 culture flask, and when the cell density grew to 60˜80%, the culture medium was removed and the cells were washed once with 7 mL PBS (Phosphate Buffered Saline), and then 3 mL of 0.25% Trypsin was added for digestion. After completion of digestion, 7 mL of culture medium (90% DMEM/F12+10% FBS+500 μg/mL G418) was added to neutralize, and centrifuged at 800 rpm for 3 min; the supernatant was aspirated, then 5 mL of culture medium was added to resuspend the cells, and the cells were counted.
Cell spreading: according to the cell counting results, the density was adjusted to 3×10^4 cells/well. After standing at room temperature for 30 minutes, the cells were placed in a CO2 incubator at 37° C. overnight, and incubated for 16-18 hours to reach a cell density of about 80%.
Fluorescent dye incubation: Cell culture solution was discarded, 80 μL/well of loading buffer was added and the cells were incubated for 60 minutes at room temperature and protected from light.
Compound incubation: Loading buffer was discarded, 80 μL/well of prepared compound solution was added, and the cells were incubated for 20 min at room temperature and protected from light.
Fluorescence data acquisition: Real-time fluorescence signal recording was performed using an FDSS/pCELL instrument with an excitation wavelength of 480 nm and an emission wavelength of 540 nm, and the signal was recorded once per second. 10 seconds of the baseline was recorded, then 20 μL/well of stimulation buffer was added, and the recording was continued until the end of 180 seconds.
Loading buffer: 10 mL/plate, prepared as follows:
Stimulation buffer: 5 mL/plate, prepared as follows:
The above buffers were obtained from a commercially available kit called FluxOR potassium ion channel assay.
20 mM stock solution of compound in DMSO was prepared, 10 μL of 20 mM compound stock solution was taken into 20 μL of DMSO solution, and a 3-fold serial dilution was performed to form 8 intermediate concentrations; then the intermediate concentrations of the compounds were taken respectively into test buffer, and a 200-fold dilution was performed to obtain the final concentration to be tested, and 80 μL of compound was taken and added to the assay plate.
The highest test concentration was 100 μM, and there was a total of8 concentrations. i.e., 100, 33.33, 11.11, 3.70, 1.23, 0.41, 0.137, 0.045 μM, respectively, with 3 replicate wells for each concentration.
The experimental data were analyzed by Excel 2007, GraphPad Prism 5.0 software, and the ratio of 180 s was counted to calculate the agonistic effect. The compound agonistic effect was calculated by the following equation: […]

T1 sequence (O43526 whole entry): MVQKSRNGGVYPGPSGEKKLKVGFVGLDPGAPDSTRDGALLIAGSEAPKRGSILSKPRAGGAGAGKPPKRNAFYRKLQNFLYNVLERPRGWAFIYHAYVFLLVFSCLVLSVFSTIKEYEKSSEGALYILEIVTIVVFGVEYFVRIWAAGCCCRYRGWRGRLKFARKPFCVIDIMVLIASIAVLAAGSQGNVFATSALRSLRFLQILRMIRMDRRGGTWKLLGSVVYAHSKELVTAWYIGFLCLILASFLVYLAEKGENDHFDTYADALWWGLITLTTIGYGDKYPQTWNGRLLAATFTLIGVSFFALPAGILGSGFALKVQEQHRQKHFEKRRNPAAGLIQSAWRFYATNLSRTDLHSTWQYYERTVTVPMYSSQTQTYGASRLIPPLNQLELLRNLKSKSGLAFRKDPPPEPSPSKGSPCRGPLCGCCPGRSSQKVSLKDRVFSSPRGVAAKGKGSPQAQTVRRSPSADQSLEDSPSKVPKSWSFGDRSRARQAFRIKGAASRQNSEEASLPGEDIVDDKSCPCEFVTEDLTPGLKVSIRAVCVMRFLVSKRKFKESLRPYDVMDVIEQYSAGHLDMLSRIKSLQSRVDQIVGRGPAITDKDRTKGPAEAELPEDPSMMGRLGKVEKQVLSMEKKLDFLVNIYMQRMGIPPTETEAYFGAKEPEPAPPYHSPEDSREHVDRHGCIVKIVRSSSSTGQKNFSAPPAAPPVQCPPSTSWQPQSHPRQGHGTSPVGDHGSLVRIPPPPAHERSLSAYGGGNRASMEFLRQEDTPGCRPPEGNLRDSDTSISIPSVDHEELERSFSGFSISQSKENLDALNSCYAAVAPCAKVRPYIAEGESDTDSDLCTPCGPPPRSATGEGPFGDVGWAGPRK

| pEC50 | Maximum agonist rate (%) | Structure (SMILES) |
| --- | --- | --- |
| 6.40 | 36.30 | Cc1cc2c(c(C)c1NC(=O)CC1(C)CC1)CN(c1ccc(F)cc1)CC2 [Compound 3001] |
| 7.23 | 38.96 | Cc1cc2c(c(C)c1NC(=O)CC1(C)CC1)CN(c1ccc(C(F)(F)F)cc1)CC2 [Compound 3002] |
